Entries after “also recorded” stand apart in the source; their conditions may differ. Marks after values point to notes of the source that are not given here.
How the values were obtained:
[1] = test system: MCF-7 human mammary tumor cells; experiment: inhibition of growth of MCF-7 cells (tritiated thymidine incorporation); conditions: for IC30 for inhibition of growth: MCF-7, 24 hours drug exposure; for fold increase in the cancer growth inhibition potency of paclitaxel: MCF-7, anthracycline at IC30 concentration
Method: (§1) The inhibitory effects of doxorubicin (I), 13-deoxydoxorubicin (II), 5-imino-13-deoxydoxorubicin (III), daunorubicin (IV), 13-deoxydaunorubicin (V), and 5-imino-13-deoxydaunorubicin (VI) on the growth of MCF-7 human mammary tumor cells and P388 murine leukemia cells are measured in vitro. The MCF-7 and P388 cell lines used for these studies are cultured and maintained utilizing the protocol from the American Type Culture Collection (ATCC) protocols. MCF-7 media was EMEM (Eagle Minimum
(§2) Essential Medium; ATCC) and P388 media is Dulbecco's modified Eagle's medium (DMEM, ATCC). Working media for MCF-7 and P388 is made by the addition of 50 ml FBS (fetal bovine serum, MCF-7) or 50 ml horse serum (ATCC, P388) to 450 ml EMEM media (MCF-7) or DMEM (P388). 4.5 g/L glucose (Sigma) is also added to the DMEM (P388). Five ml Penicillin/Streptomycin (P/S, Gibco) is added to the MCF-7 and P388 working media. Cells are grown at 37° C. in 5% CO2 for 1 week, and 25 ml fresh media is added. Cells are passaged when they reach a density of 1-2×10^6 cells/ml by transferring to a new flask containing fresh media.
(§3) Using sterile technique, MCF-7 cells are harvested from the T-75 flasks by removing and discarding the culture medium. 5 ml of 0.25% Trypsin-EDTA solution (Sigma) is added to each flask to de-attach the cells. The flask is placed in the incubator for 5-10 minutes to facilitate dispersal. 10 ml of complete growth medium is added, directly decanted into 50 ml tubes then centrifuged for 10 minutes at 200×g. P388 cells are harvested by directly decanting media into 50 ml tubes and centrifuging for 10 minutes at 200×g. The pellet (MCF-7 and P388) is resuspended in 5 ml and the cells dispersed by expelling gently through an 18 g needle fitted to a syringe. The cells are counted using a hemocytometer and diluted with media to 150,000 cells/ml. The diluted cells are pipetted into 96-well plates at a concentration of 15,000 cells/well in 100 μl. The plates are covered and incubated at 37° C. for 48 hours.
(§4) Dilutions of the anthracyclines and paclitaxel are made up in cell-specific serum-free media. The drugs at appropriate concentrations are added to all wells in 50 μl aliquots and the cells are grown in the presence of the drugs (anthracyclines/paclitaxel) for 24 hours. Tritiated thymidine (ICN) is diluted in serum-free cell-specific media to a concentration of 1 μCi/50 μl. All wells used for analysis are spiked with 50 μl aliquots of media containing tritiated thymidine. Following a 4-hour exposure to isotope, tritiated thymidine incorporation into DNA is measured by hypotonic lysis of cells with deionized water and collection of cellular contents onto Whatman GF-C filters using a Brandel cell harvester. Prior to harvesting MCF-7 cells, the media is aspirated, 150 μL of 0.25% Trypsin-EDTA is added to each well to de-attach the cells. Filters are allowed to dry, placed into 7 ml scintillation vials containing 5 ml scintillation cocktail and counted in a scintillation counter. In preliminary experiments, the concentrations of anthracyclines that would produce a 30% inhibition of growth (inhibitory concentration 30, IC30) on MCF-7 cells and 10% inhibition of growth (IC10) on P388 cells are determined.

[2] = test system: H9c2 cells; experiment: growth inhibition of non-cancerous H9c2 cells; format: cell-based; conditions: Rattus norvegicus
[3] = test system: P388 murine leukemia cells; experiment: inhibition of growth of P388 cells in vitro (tritiated thymidine incorporation); conditions: for IC10 for inhibition of growth: P388, 24 hours drug exposure
Method: as §1, §2, §3, §4

[4] = cardiotoxicity evaluation in chronically treated rabbits (LVFS, hematocrit, isolated atria dF/dt, histopathology); conditions: rabbit; for Histopathology Score / dF/dt (myocardial contractility of isolated atria) / FS % (left ventricular fractional shortening), Post / cardiotoxicity with chronic dosing / HCT % (hematocrit), Post: in vivo; for FS % (left ventricular fractional shortening), Post / HCT % (hematocrit), Post: iv
Method: Twenty-four age matched New Zealand white rabbits weighing 3.0 kg are randomized into four groups (N=6 rabbits/group). […] Doses of drug or vehicle are administered iv into an ear vein two times per week. Serum and blood samples are obtained weekly and M-mode echocardiology performed weekly or every other week to obtain left ventricular fractional shortening (LVFS) to assess cardiac function. Food consumption is measured daily and body weight is measured weekly. Control rabbits are fed the same amount of food as doxorubicin treated rabbits (pair fed). At sacrifice, apex and left ventricular free wall samples are obtained and preserved in 10% buffered formalin for histologic scoring and analysis via light microscopy. Left ventricular tissue samples are also obtained to assess cardiac levels of anthracyclines and metabolites.
At sacrifice, the heart is removed and two types of tissue are sampled from the heart, ventricular apex and left ventricular free wall, and stored in 10% formalin. Each tissue is prepared for three different stains: H&E, toluidine blue, and trichcrome. The tissues are scored (blind) using a modification of the Billingham scale. The scoring scale is from 0-4 with 0=<10% of cells or tissue lesioned, 1 to 10%-19% of cells or tissue lesioned, 2 to 20%-29% of cells or tissue lesioned, 3 to 30%-39% of cells or tissue lesioned, 4 to 40% or more cells or tissue lesioned. The ventricular apex and the left ventricular free wall are analyzed separately. Each receives a score for mononuclear infiltration, fibrosis, and cytoplasmic vacuolization. Thus, each rabbit has six scores, three for the apex (mononuclear infiltration, fibrosis, and cytoplasmic vacuolization) and three for the left ventricular free wall (mononuclear infiltration, fibrosis, and cytoplasmic vacuolization). Each score is obtained by looking at all three stains.
Also at sacrifice, left atria are isolated, divided in half and both halves studied to assess cardiac function in vitro in a tissue bath where afterload and preload remain constant throughout the study. Cardiac contractility is measured as the maximum rate of force development (dF/dt) in response to contractions induced by electrical stimulation via punctuate electrodes located at the base of each muscle preparation.

[5] = test system: breast cancer; conditions: breast cancer patients; cited from earlier work
[6] = test system: P388 murine leukemia; experiment: in vivo anticancer activity in murine leukemia model, CD2F1 mice injected with P388 cells; conditions: for Median survival time: 1 million P388 cells ip; for T/C % (median survival time of treated mice divided by that of control mice x 100): P388 ip
Method: Groups of CD2F1 mice are injected intraperitoneally (ip) with 1 million P388 cells. There were 10 mice per group. In the doxorubicin group 0.8 mg/kg is administered ip consecutively for 9 days on days 1-9 of the study. […] A control group is injected with vehicle. Median survival times are calculated for each group. Activity of a compound is expressed as the amount of prolonged survival (median survival of the treated group divided by the median survival time of the control group, multiplied by 100, T/C %).

[7] = optimum antitumor dose relative to doxorubicin; conditions: in vivo
[8] = H9c2, H9c2, anthracycline alone
[9] = H9c2, H9c2, in the presence of weak growth inhibitory concentrations of paclitaxel (IC10)

| SMILES | IC30 for inhibition of growth [1] | fold increase in the cancer growth inhibition potency of paclitaxel [1] | IC10 for inhibition of growth [3] | cardiotoxicity with chronic dosing [4] | HCT % (hematocrit), Post [4] | Median survival time ([6]; drug ip on days 1-9, n = 10) | T/C % (median survival time of treated mice divided by that of control mice x 100) ([6]; drug ip on days 1-9, n = 10) | other results |
| --- | --- | --- | --- | --- | --- | --- | --- | --- |
| COc1cccc2c1C(=O)c1c(O)c3c(c(O)c1C2=O)C[C@@](O)(C(=O)CO)C[C@@H]3OC1CC(N)C(O)C(C)O1 (stereo partly drawn) [Doxorubicin (I), doxorubicin] | 100 nM | 2.8 fold | 250 nM | profound cardiotoxicity | 27.5* % | 28 days | 147* % | IC50 ([2]; H9c2, anthracycline alone): 210 nM; Histopathology Score ([4]; New Zealand white): 1.81*,^+; dF/dt (myocardial contractility of isolated atria) ([4]; New Zealand white): 15.1*,^+ gms/sec; FS % (left ventricular fractional shortening), Post ([4]; New Zealand white): 27.4*,^+ %; cumulative cardiotoxic dose ([4]; 1.25 mg/kg twice/week for 7 weeks): 17.5 mg/kg; Histopathology Score [4]: significantly increased; dF/dt (myocardial contractility of isolated atria) [4]: significantly reduced; FS % (left ventricular fractional shortening), Post [4]: statistically significant decrease; anticancer response rate [5]: 35-50%; T/C % (median survival time of treated mice divided by that of control mice x 100) ([6]; drug ip on days 1-9, n = 10, listed as Doxorubicin): 147% |
| COc1cccc2c1C(=O)c1c(O)c3c(c(O)c1C2=O)C[C@@](O)(CCO)C[C@@H]3OC1CC(N)C(O)C(C)O1 (stereo partly drawn) [Compound II, 13-deoxydoxorubicin] | 450 nM | 20 fold | 1100 nM | devoid of cardiotoxicity | 23.8* % | 27 days | 142* % | IC50 [2, 8]: 700 nM; IC50 [2, 9]: 400 nM; optimum antitumor dose relative to the dose of doxorubicin [7]: approximately twice; Median survival time ([6]; drug ip on days 1-9, n = 10, listed as 13-deoxydoxorubicin): significant increase in median survival time |
| COc1cccc2c1C(=N)c1c(O)c3c(c(O)c1C2=O)C[C@@](O)(CCO)C[C@@H]3OC1CC(N)C(O)C(C)O1 (stereo partly drawn) [Compound III] | 750 nM | 220 fold | 3500 nM | devoid of cardiotoxicity | 33.3* % | 27 days | 142* % | IC50 [2, 8]: 1500 nM; IC50 [2, 9]: 210 nM; optimum antitumor dose relative to the dose of doxorubicin [7]: up to 7 times |
| CC(=O)O[C@H]1C(=O)[C@@]2(C)[C@H]([C@H](OC(=O)c3ccccc3)[C@]3(O)C[C@H](OC(=O)[C@H](O)[C@@H](NC(=O)c4ccccc4)c4ccccc4)C(C)=C1C3(C)C)[C@]1(OC(C)=O)CO[C@@H]1C[C@@H]2O [Paclitaxel, paclitaxel] | – | – | – | – | – | – | – | growth inhibitory effect ([1]; MCF7, paclitaxel alone, 1 to 50 nM): no growth inhibitory effect; IC50 of paclitaxel for inhibition of growth ([3]; P388, paclitaxel alone or in the presence of the anthracycline at its IC10 concentration, mean ± standard error, n = 3): no inhibitory activity; also recorded: Inactive; growth inhibitory effect ([3]; P388, paclitaxel alone, concentrations up to 2000 nM): no growth inhibitory effect; anticancer response rate [5]: 32-62% |
| CC[C@]1(O)Cc2c(O)c3c(c(O)c2[C@@H](OC2CC(N)C(O)C(C)O2)C1)C(=O)c1c(OC)cccc1C3=O (stereo partly drawn) [Compound V, 13-deoxydaunorubicin] | 645 nM | – | 700 nM | – | – | – | – | – |
| COc1cccc2c1C(=O)c1c(O)c3c(c(O)c1C2=O)C[C@@](O)(C(C)=O)C[C@@H]3OC1CC(N)C(O)C(C)O1 (stereo partly drawn) [Daunorubicin (IV), daunorubicin] | 750 nM | – | 300 nM | – | – | – | – | – |
| CC[C@]1(O)Cc2c(O)c3c(c(O)c2[C@@H](OC2CC(N)C(O)C(C)O2)C1)C(=N)c1c(OC)cccc1C3=O (stereo partly drawn) [Compound VI] | 875 nM | – | 1700 nM | – | – | – | – | – |
